One data set concerns Musca domestica SNAIDM. The data set can be described thus: Topical toxicity to adult female SNAIDM (susceptible) houseflies, alone and with piperonyl butoxide. It is filed as in vivo, Musca domestica L. The protocol:
(§1) The compounds of the present invention were tested for insecticidal activity by standard methods, and compared with the insecticidal activities of DDT and symmetrical analogs of DDT, such as methoxychlor. Toxicological methods for the determination of the topical LD50 values to adult female SNAIDM and PSR houseflies, Musca domestica L. and to Phormia regina, and LC50 values to clex pipiens quinquefas ciatus Say, and Anopheles albimanus Weid mosquitoes were described by Metcalf et al., 44 Bull. World Health Org. 363 (1971). The methods for evaluation of metabolism by mouse liver homogenate and by female RSP housefly and salt-marsh caterpillar larvae Estigmene acrea Drury, were described by Metcalf et al., 5 J. Environ. Sci. Tech. 709 (1971).
(§2) The synergistic ratios or SR values (LD50 alone/ LD50 synergized with piperonyl butoxide) shown in Table II indicate the role of the multifunction oxidase (MFO) in detoxifying the individual compounds. Since piperonyl butoxide serves to block the action of MFO, the synergized LD50 values express the intrinsic toxicity of the compounds. With the detoxifying action of MFO enzymes blocked, the intrinsic toxicity of the compounds can thus be measured.

Another data set concerns Musca domestica Rsp. The data set can be described thus: Topical toxicity to adult female Rsp (resistant) houseflies, alone and with piperonyl butoxide. In kind it is in vivo, Musca domestica L. The method, then: as §1, §2
The test system of a further data set is Phormia regina. The data set can be described thus: Topical toxicity to Phormia regina, alone and with piperonyl butoxide. It is filed as in vivo. The protocol: as §1, §2
For the next data set, the system named is Culex fatigans larvae. The data set can be described thus: Toxicity to Culex mosquito larvae. In kind it is in vivo. The method, then: as §1
Data set [1] has as its system Anopheles albimanus larvae. The data set can be described thus: Toxicity to Anopheles albimanus mosquito larvae. It is filed as in vivo. The method, then:
as §1

In data set [2] the test system is multifunction oxidase (MFO) enzymes. The data set can be described thus: Biodegradability / metabolism by multifunction oxidase (MFO) enzymes (insects, mice, model ecosystem). It is filed as in vitro ADME. Conditions: inferred from SR values.
From the text: It has been found from metabolic studies on insects, and mice, using a model ecosystem and the methods described in Kapoor, et al., 18(6) J.Agr., Food Chem. 1145 (1970), Metcalf, et al., J. Environ. Sci. Technol. 709 (1971) and also in the copending application of Metcalf et al., "Insecticidal Biodegradable Analogues of DDT", Ser. No. 147,241, filed May 26, 1971, and having a common assignee with the present application, that certain p,p'-disubstituted α-trichloromethylbenzylphenyl ethers with various substituent groups are readily attacked by multifunction oxidase (MFO) enzymes, and thus are substantially biodegradable.
as §1, with “709 (1971). […]” for “709 (1971).”

A value given as a limit tells only on which side of the number the result lay.

The LD50 is the dose at which mortality reaches 50%. Take `COc1ccc(OC(c2ccc(OC)cc2)C(Cl)(Cl)Cl)cc1` (stereo not drawn) [II, α-trichloromethyl-p-methoxybenzyl p-methoxyphenyl ether]: in the data set on Musca domestica SNAIDM (LD50 alone / LD50 synergized with piperonyl butoxide, SNAIDM), the “SR (synergistic ratio), Musca domestica SNAIDM” value is listed as 22. The LD50 in the data set with Musca domestica SNAIDM (Musca domestica, SNAIDM strain, topical, alone) was 300 mg/kg; with Musca domestica Rsp (Musca domestica, Rsp strain, topical, alone) it was greater than 500 mg/kg; in the data set on Phormia regina (Phormia regina, topical, alone), 125 mg/kg. Further, the “Topical LD50, Musca domestica SNAIDM, pb” value in the data set with Musca domestica SNAIDM (SNAIDM strain, topical, synergized with piperonyl butoxide (pb)) stood at 14.0 μg per g. The “SR (synergistic ratio), Musca domestica Rsp” value in the data set with Musca domestica Rsp (LD50 alone / LD50 synergized with piperonyl butoxide, Rsp) is reported as greater than 8.7. The “Topical LD50, Musca domestica Rsp, pb” value with Musca domestica Rsp (Rsp strain, topical, synergized with piperonyl butoxide (pb)) turned out to be 57.5 μg per g. Besides, the “SR (synergistic ratio), Phormia regina” value in the data set on Phormia regina (LD50 alone / LD50 synergized with piperonyl butoxide) is 1.5. For the same molecule, the “Topical LD50, Phormia regina, pb” value in the data set on Phormia regina (topical, synergized with piperonyl butoxide (pb)) was 82.5 μg per g. Also, the “LC50 Culex fatigans larvae” value with Culex fatigans larvae turned out to be 0.51 ppm. Further, the “LC50 Anopheles albimanus larvae” value in data set [1] turned out to be 0.10 ppm. Also, the “detoxication in susceptible and resistant houseflies” value in data set [2] is given as “rapid detoxication”.

The values are drawn from US3966824A, “P,P'-Disubstituted α-trichloromethylbenzylphenyl ethers” (University of Illinois Foundation, priority 1974, dated 1976).
